Reference: patent US11707539B2, “FAP-targeted radiopharmaceuticals and imaging agents, and uses related thereto” (Trustees of Tufts College, priority 2020, dated 2023)
Where a SMILES comes first, the peptide text is derived from it.

Tests used:
[1] = system: HEK-mFAP tumor xenografts; test: Efficacy and survival study, single injection; type: in vivo, mouse; details: single IV injection
Experimental: The aim of the study was to assess the therapeutic efficacy of a single injection of ^177Lu-PNT2004 ([^177Lu]-6522) by evaluating tumor growth delay and median survival. ^177Lu-PNT2004 ([^177Lu]-6522) was provided in 3 concentrations, ready for injection (80 μL/mouse), and the injected dose was determined using a well counter (Capintec calibration) #430x10.
A total of 30 HEK-mFAP tumor-bearing mice were used for the study.
Mouse health checks were performed throughout the study on a weekly basis including body weight measurements. Tumor growth was monitored weekly with caliper measurements (tumor volume=length×width^2×0.5). Study endpoints include tumor size >2 cm in any dimension, tumor ulceration, mouse is moribund, and >15% body weight lost from the last measurement. Mice were housed 5 to a cage with ad libitum access to food and water in 20° C. ambient temperature, 40%-50% humidity, and 12-hour light/12-hour dark cycle.
The mice were randomized into 5 groups, n=6 mice per group. The treatment compositions (1 through 5 above) were injected IV through the tail vein using a catheter (mounted with a 30 Ga needle). Injected doses were determined using a well counter (Capintec calibration). Tumor growth was monitored weekly with caliper measurements, and the mice were followed for survival.

[2] = system: HEK-mFAP tumor xenografts; test: In vivo biodistribution study of [177Lu]-6522, gamma counting; details: for Mean (% ID/g): i.v.
[3] = Radiochemical purity by HPLC on storage at room temperature; type: physicochemical; details: three days at room temperature
Experimental: The labeling efficiency was analyzed by instant thin layer chromatography (iTLC) and was typically >98%. For iTLC analysis, 1 μL of diluted labeling solution was applied to a strip of iTLC-SA chromatography paper (Agilent P/N A120B12, 114×2.5 mm) and developed in 0.1M citrate buffer (8 cm solvent migration) to assess free ^177Lu (Rf >0.5) and [^177Lu]-6555 (Rf ˜0). The iTLC strips were analyzed using an Eckert & Ziegler AR-2000 Radio-TLC Imaging Scanner. The radiochemical purity was analyzed by high performance chromatography (HPLC) and was typically >90%. Briefly, the product was analyzed using a Phenomenex Luna 3.0 μm C18(2), 100A, 150 mm×4.6 mm column. Eluent A: 50 mM ammonium acetate in water, eluent B: acetonitrile. Gradient: 2% B from 0-5 min; 2% to 26% B from 5-20 min; 26% to 98% B from 20-25 min; 98% to 2% B from 25-26 min; 2% B from 26-30 min. Flow rate: 1.0 mL/min, Radio-HPLC detector: NaI (Eckert & Zeigler FC-1000), UV: 215 nm. The radiochemical purity remained >90% for three days at room temperature.
The above depicted radiopharmaceutical [^177Lu]-6952 can be prepared as described in Example 19 using the radiochemical precursor 6952 (Example 14 above). The labeling efficiency was analyzed by instant thin layer chromatography (iTLC) and was typically >98%. […] The iTLC strips were analyzed using an Eckert & Ziegler AR-2000 Radio-TLC Imaging Scanner. The radiochemical purity was analyzed by high performance chromatography (HPLC) and was typically >90%. Briefly, the product was analyzed using a Phenomenex Luna 3.0 m C18(2), 100A, 150 mm×4.6 mm column. […]
The labeling efficiency was analyzed by instant thin layer chromatography (iTLC) and was typically >95%. […] The iTLC strips were analyzed using an Eckert & Ziegler AR-2000 Radio-TLC Imaging Scanner. The radiochemical purity was analyzed by high performance chromatography (HPLC) and was typically >95%. Briefly, the product was analyzed using a Phenomenex Luna 3.0 m C18(2), 100Å, 150 mm×4.6 mm column. […]
The labeling efficiency was analyzed by instant thin layer chromatography (iTLC) and was typically >95%. […]

CC(C)[C@H](NC(=O)CNC(=O)CNC(=O)CN1CCN2CCN3CCN(CC1)CC(=O)[O][Lu]([O]C(=O)C2)[O]C(=O)C3)C(=O)N[C@H](C)C(=O)N1CCC[C@H]1B(O)O [[^177Lu]-6522] (HELM PEPTIDE1{[O=C1CN2CCN3CCN(CC(=O)[*:2])CCN(CC2)CC(=O)[O][Lu]([O]1)[O]C(=O)C3].G.G.V.[dA].[OB(O)[C@@H]1CCCN1[*:1]]}$$$$V2.0)
survival benefit ([1]; 15 MBq): did not translate in a survival benefit | tumor growth delay ([1]; 15 MBq): tumor growth delay was observed | survival benefit ([1]; 30 MBq): did not translate in a survival benefit | tumor growth delay ([1]; 30 MBq): tumor growth delay was observed | survival benefit compared to the vehicle or precursor group ([1]; 60 MBq): statically significant survival benefit | Mean (% ID/g) ([2]; Blood, 4 h p.i.): 0.3063 % ID/g | Mean (% ID/g) ([2]; Blood, 24 h p.i.): 0.0085 % ID/g | Mean (% ID/g) ([2]; Blood, 48 h p.i.): 0.0029 % ID/g | Mean (% ID/g) ([2]; Blood, 168 h p.i.): 0.0015 % ID/g | Mean (% ID/g) ([2]; Bone, 4 h p.i.): 1.8037 % ID/g | Mean (% ID/g) ([2]; Bone, 24 h p.i.): 0.2658 % ID/g | Mean (% ID/g) ([2]; Bone, 48 h p.i.): 0.4106 % ID/g | Mean (% ID/g) ([2]; Bone, 168 h p.i.): 0.3959 % ID/g | Mean (% ID/g) ([2]; Brain, 4 h p.i.): 0.0281 % ID/g | Mean (% ID/g) ([2]; Brain, 24 h p.i.): 0.0036 % ID/g | Mean (% ID/g) ([2]; Brain, 48 h p.i.): 0.0033 % ID/g | Mean (% ID/g) ([2]; Brain, 168 h p.i.): 0.0020 % ID/g | Mean (% ID/g) ([2]; Heart, 4 h p.i.): 0.1528 % ID/g | Mean (% ID/g) ([2]; Heart, 24 h p.i.): 0.0332 % ID/g | Mean (% ID/g) ([2]; Heart, 48 h p.i.): 0.0311 % ID/g | Mean (% ID/g) ([2]; Heart, 168 h p.i.): 0.0256 % ID/g | Mean (% ID/g) ([2]; Kidneys, 4 h p.i.): 2.3525 % ID/g | Mean (% ID/g) ([2]; Kidneys, 4 h p.i., listed as Compound #2): 2.35±0.51 % ID/g | Mean (% ID/g) ([2]; Kidneys, 24 h p.i.): 0.9585 % ID/g | Mean (% ID/g) ([2]; Kidneys, 48 h p.i.): 0.5318 % ID/g | Mean (% ID/g) ([2]; Kidneys, 168 h (day 7) p.i.): 0.1670 % ID/g | Mean (% ID/g) ([2]; Kidneys, 168 h (day 7) p.i., listed as Compound #2): 0.17±0.02 % ID/g | Mean (% ID/g) ([2]; Liver, 4 h p.i.): 0.3774 % ID/g | Mean (% ID/g) ([2]; Liver, 24 h p.i.): 0.1585 % ID/g | Mean (% ID/g) ([2]; Liver, 48 h p.i.): 0.1237 % ID/g | Mean (% ID/g) ([2]; Liver, 168 h p.i.): 0.0725 % ID/g | Mean (% ID/g) ([2]; Lung, 4 h p.i.): 0.3331 % ID/g | Mean (% ID/g) ([2]; Lung, 24 h p.i.): 0.0306 % ID/g | Mean (% ID/g) ([2]; Lung, 48 h p.i.): 0.0312 % ID/g | Mean (% ID/g) ([2]; Lung, 168 h p.i.): 0.0257 % ID/g | Mean (% ID/g) ([2]; Muscle, 4 h p.i.): 0.4649 % ID/g | Mean (% ID/g) ([2]; Muscle, 24 h p.i.): 0.0315 % ID/g | Mean (% ID/g) ([2]; Muscle, 48 h p.i.): 0.0518 % ID/g | Mean (% ID/g) ([2]; Muscle, 168 h p.i.): 0.0604 % ID/g | Mean (% ID/g) ([2]; Pancreas, 4 h p.i.): 0.2167 % ID/g | Mean (% ID/g) ([2]; Pancreas, 24 h p.i.): 0.0347 % ID/g | Mean (% ID/g) ([2]; Pancreas, 48 h p.i.): 0.0275 % ID/g | Mean (% ID/g) ([2]; Pancreas, 168 h p.i.): 0.0197 % ID/g | Mean (% ID/g) ([2]; Skin, 4 h p.i.): 0.9769 % ID/g | Mean (% ID/g) ([2]; Skin, 24 h p.i.): 0.1158 % ID/g | Mean (% ID/g) ([2]; Skin, 48 h p.i.): 0.0906 % ID/g | Mean (% ID/g) ([2]; Skin, 168 h p.i.): 0.0837 % ID/g | Mean (% ID/g) ([2]; Small intestine, 4 h p.i.): 0.2091 % ID/g | Mean (% ID/g) ([2]; Small intestine, 24 h p.i.): 0.0580 % ID/g | Mean (% ID/g) ([2]; Small intestine, 48 h p.i.): 0.0499 % ID/g | Mean (% ID/g) ([2]; Small intestine, 168 h p.i.): 0.0277 % ID/g | Mean (% ID/g) ([2]; Spleen, 4 h p.i.): 0.2587 % ID/g | Mean (% ID/g) ([2]; Spleen, 24 h p.i.): 0.1418 % ID/g | Mean (% ID/g) ([2]; Spleen, 48 h p.i.): 0.1340 % ID/g | Mean (% ID/g) ([2]; Spleen, 168 h p.i.): 0.1437 % ID/g | Mean (% ID/g) ([2]; Stomach, 4 h p.i.): 0.1706 % ID/g | Mean (% ID/g) ([2]; Stomach, 24 h p.i.): 0.0528 % ID/g | Mean (% ID/g) ([2]; Stomach, 48 h p.i.): 0.0331 % ID/g | Mean (% ID/g) ([2]; Stomach, 168 h p.i.): 0.0210 % ID/g | Mean (% ID/g) ([2]; Tumor, 4 h p.i.): 33.0435 % ID/g | Mean (% ID/g) ([2]; Tumor, 4 h p.i., listed as Compound #2): 33.04±5.29 % ID/g | Mean (% ID/g) ([2]; Tumor, 24 h p.i.): 12.9944 % ID/g | Mean (% ID/g) ([2]; Tumor, 48 h p.i.): 7.6749 % ID/g | Mean (% ID/g) ([2]; Tumor, 168 h p.i.): 3.9910 % ID/g | localization in tumor and normal tissue uptake ([2]; up to 168 h p.i.): high localization in tumor xenografts and low normal tissue uptake

C[C@@H](NC(=O)c1ccc(CNC(=O)CN2CCN3CCN4CCN(CC2)CC(=O)[O][Lu]([O]C(=O)C3)[O]C(=O)C4)cc1)C(=O)N1CCC[C@H]1B(O)O [[^177Lu]-6555]
radiochemical purity remained [3]: > 90%
